In US6875760B2 (Novo Nordisk A/S, priority 1999, dated 2005):

target: T1, human glucagon receptor (Homo sapiens, UniProt P47871); assay: Glucagon Binding Assay (III); settings: BHK cell membranes, WGA SPA beads, 125I-glucagon; read-out: Glu Bd Assay (III) IC50
T1 construct: expressed in transfected cells; host or cells: BHK (baby hamster kidney) cells
Outline: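 Non-specific binding was set with 500 nM glucagon in this SPA-type binding assay using WGA beads. The receptor source was a membrane preparation, kept on ice or at 4 °C, from BHK cells transfected with the human receptor. Scintillation counts were taken after 4 hours of shaking and 8–48 hours of settling.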

T1 sequence (P47871 26-477): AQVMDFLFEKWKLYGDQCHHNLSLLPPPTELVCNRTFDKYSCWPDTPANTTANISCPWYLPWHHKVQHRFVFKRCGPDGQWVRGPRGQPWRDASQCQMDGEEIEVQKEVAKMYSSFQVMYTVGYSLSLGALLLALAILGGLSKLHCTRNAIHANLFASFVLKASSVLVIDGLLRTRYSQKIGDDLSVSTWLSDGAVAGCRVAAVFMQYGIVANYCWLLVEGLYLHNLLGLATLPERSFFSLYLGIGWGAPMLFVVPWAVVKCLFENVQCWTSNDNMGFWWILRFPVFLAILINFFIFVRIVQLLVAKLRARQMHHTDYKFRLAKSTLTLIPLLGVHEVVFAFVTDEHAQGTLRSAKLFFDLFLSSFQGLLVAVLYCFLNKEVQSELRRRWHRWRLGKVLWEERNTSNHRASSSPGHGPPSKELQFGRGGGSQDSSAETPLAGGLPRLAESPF

Point of comparison: `CC(C)(C)C1CCC(N(Cc2ccc(C(=O)Nc3nn[nH]n3)cc2)C(=O)c2ccc(OC(F)(F)F)cc2)CC1` (centres unmarked) [Example 489, 4-{[(4-tert-Butylcyclohexyl)-(4-triflourmethoxybenzoyl)amino]methyl}-N-(2H-tetrazol-5-yl)benzamide], IC50 150 nM. Against it:
- CCCCC(CC)CN(Cc1ccc(C(=O)NCCC(=O)O)cc1)C(=O)Nc1ccc(C(C)C)cc1 (centres unmarked) [Example 43, 3-{4-[1-(2-Ethylhexyl)-3-(4-isopropylphenyl)ureidomethyl]benzoylamino}propionic acid] — 7.4-fold higher, 1110 nM
- Cn1nnc(-c2cccc(NC(=O)N(Cc3ccc(C(=O)Nc4nn[nH]n4)cc3)c3ccc(C(C)(C)C)cc3)c2)n1 [Example 370, 4-{1-(4-tert-Butylphenyl)-3-[3-(2-methyl-2H-tetrazol-5-yl)phenyl]ureidomethyl}-N-(2H-5-yl)benzamide] — 1.7-fold lower, 87 nM
- CC(C)N1C(=O)c2ccc(NC(=O)N(Cc3ccc(C(=O)Nc4nn[nH]n4)cc3)c3ccc(C(C)(C)C)cc3)cc2C1=O [Example 628, 4-[1-(4-tert-Butyl-phenyl)-3-(N′-isopropylphthalimid-4-yl)ureidomethyl]-N-(2H-tetrazol-5-yl)benzamide] — 4.3-fold lower, 35 nM
- CC(C)(C)C1CCC(N(Cc2ccc(C(=O)Nc3nn[nH]n3)cc2)C(=O)Cc2c(Cl)cccc2Cl)CC1 (centres unmarked) [Example 539, 4-({(4-tert-Butylcyclohexyl)-[2-(2,6-dichlorophenyl)acetyl]amino}methyl)-N-(2H-tetrazol-5-yl)benzamide] — 2.6-fold higher, 386 nM
- O=C(O)CCNC(=O)c1ccc(CN(C(=O)Nc2cc(C(F)(F)F)cc(C(F)(F)F)c2)C2CCc3ccccc3C2)cc1 (centres unmarked) [Example 86, 3-{4-[3-(3,5-Bis(trifluoromethyl)phenyl)-1-(1,2,3,4-tetrahydronaphthalen-2-yl)ureidomethyl]benzoylamino}propionic acid] — 2.8-fold higher, 423 nM
- COc1cc(NC(=O)N(Cc2ccc(C(=O)Nc3nn[nH]n3)cc2)c2ccc(C3CCCCC3)cc2)cc(C(F)(F)F)c1 [Example 319, 4-[1-(4-Cyclohexylphenyl)-3-(3-methoxy-5-trifluoromethylphenyl)ureidomethyl]-N-(2H-tetrazol-5-yl)benzamide] — 8.3-fold lower, 18 nM
- CCCCN(C)C(=O)c1cccc(NC(=O)N(Cc2ccc(C(=O)Nc3nn[nH]n3)cc2)c2ccc(C3CCCCC3)cc2)c1 [Example 464, N-Butyl-N-methyl-3-{3-(4-cyclohexylphenyl)-3-[4-(2H-tetrazol-5-ylcarbamoyl)benzyl]ureido}benzamide] — 1.6-fold lower, 95 nM
- CCC1CCC(N(Cc2ccc(C(=O)NCCC(=O)O)cc2)C(=O)Nc2cc(C(F)(F)F)cc(C(F)(F)F)c2)C1 (centres unmarked) [Example 85, 3-{4-[3-(3,5-Bis(trifluoromethyl)phenyl)-1-(3-ethylcyclopentyl)ureidomethyl]benzoylamino}propionic acid] — 3.3-fold higher, 494 nM
- O=C(Nc1nn[nH]n1)c1ccc(CN(C(=O)c2ccc(Cc3ccccc3)cc2)c2ccc(N3CCCCC3)cc2)cc1 [Example 519, 4-{[(4-Benzylbenzoyl)-(4-piperidin-1-ylphenyl)amino]methyl}-N-(2H-tetrazol-5-yl)benzamide] — 6.1-fold higher, 908 nM
- O=C(O)CCNC(=O)c1ccc(CN(NC(=O)c2ccc(OC(F)(F)F)cc2)C2CCC3CCCCC3C2)cc1 (centres unmarked) [Example 427, 3-{4-[N-(Decahydronaphthalen-2-yl)-N′-(4-trifluoromethoxybenzoyl)hydrazinomethyl]benzoylamino}propionic acid] — 3.4-fold higher, 512 nM
- O=C(O)CCNC(=O)c1ccc(CN(C(=O)Oc2cc(C(F)(F)F)cc(C(F)(F)F)c2)c2ccc(C3CCCCC3)cc2)cc1 [Example 419, 3-(-4-{[(3,5-Bis(trifluoromethyl)phenoxycarbonyl)-(4-cyclohexylphenyl)amino]methyl}benzoylamino)propionic acid] — 3.2-fold higher, 482 nM
- CC(C)(C)[C@H]1CC[C@H](N(Cc2ccc(C(=O)Nc3nn[nH]n3)s2)C(=O)Nc2ccc(OC(F)(F)F)cc2)CC1 [Example 578, 5-[1-(trans-4-tert-Butylcyclohexyl)-3-(4-trifluoromethoxyphenyl)ureidomethyl]thiophene-2-carboxylic acid (2H-tetrazol-5-yl)amide] — 1.5-fold higher, 226 nM
- CC(C)(C)c1ccc(N(Cc2ccc(C(=O)Nc3nn[nH]n3)cc2)C(=O)Nc2ccc3c(c2)C(=O)N(CC2CC2)C3=O)cc1 [Example 640, 4-[1-(4-tert-Butylphenyl)-3-(N′-[cyclopropylmethyl]phthalimid-4-yl)ureidomethyl]-N-(2H-tetrazol-5-yl)benzamide] — 25-fold lower, 6 nM
- CC(C)(C)C1CCC(N(Cc2ccc(C(=O)Nc3nn[nH]n3)cc2)C(=O)C2=CCc3ccccc32)CC1 (centres unmarked) [Example 474, 3H-Indene-1-carboxylic acid (4-tert-butylcyclohexyl)-[4-(2H-tetrazol-5-ylcarbamoyl)benzyl]amide] — 8.4-fold higher, 1260 nM
- CC(C)(C)C1CCC(N(Cc2ccc(C(=O)Nc3nn[nH]n3)cc2)C(=O)CCCc2ccccc2)CC1 (centres unmarked) [Example 545, 4-([(4-tert-Butylcyclohexyl)-(4-phenylbutyryl)amino]methyl}-N-(2H-tetrazol-5-yl)benzamide] — 3.2-fold lower, 47 nM
- CC(C)(C)c1ccc(N(Cc2ccc(C(=O)NCCC(=O)O)cc2)C(=O)Oc2ccc(Cl)cc2Cl)cc1 [Example 407, 3-(4-{[(4-tert-Butylphenyl)-(2,4-dichlorophenoxycarbonyl)amino]methyl}benzoylamino)propionic acid] — 5-fold higher, 756 nM
- O=C(Nc1nn[nH]n1)c1ccc(CN(C(=O)Cc2ccc(F)cc2F)c2ccc(C3CCCCC3)cc2)cc1 [Example 496, 4-({(4-Cyclohexylphenyl)-[2-(2,4-difluorophenyl)acetyl]amino}methyl)-N-(2H-tetrazol-5-yl)benzamide] — 3.8-fold higher, 566 nM
- O=C(O)CCNC(=O)c1ccc(CN(C(=O)Nc2ccc(OC(F)(F)F)cc2)c2cnc3ccccc3c2)cc1 [Example 436, 3-{4-[1-Quinolin-3-yl-3-(4-trifluoromethoxyphenyl)ureidomethyl]benzoylamino}propionic acid] — 13-fold higher, 1990 nM
- CC(NC(=O)N(Cc1ccc(C(=O)Nc2nn[nH]n2)cc1)c1ccc(C2CCCCC2)cc1)c1ccc(Cl)cc1 (single isomer, unassigned) [Example 338, 4-[3-[1-(4-Chlorophenyl)ethyl]-1-(4-cyclohexylphenyl)ureidomethyl]-N-(2H-tetrazol-5-yl)benzamide] — within 1.5-fold, 169 nM
- CC(C)(C)C1CCC(N(Cc2ccc(C(=O)Nc3nn[nH]n3)cc2)C(=O)/C=C/c2c(Cl)cccc2Cl)CC1 (centres unmarked) [Example 503, 4-({(4-tert-Butylcyclohexyl)-[3-(2,6-dichlorophenyl)acryloyl]amino}methyl)-N-(2H-tetrazol-5-yl)benzamide] — 1.6-fold lower, 94 nM
- CC(Oc1ccc(OC(F)(F)F)cc1)C(=O)N(Cc1ccc(C(=O)Nc2nn[nH]n2)cc1)c1ccc(C2CCCCC2)cc1 (centres unmarked) [Example 493] — 5.9-fold higher, 880 nM
- O=C(Nc1nn[nH]n1)c1ccc(CN(C(=O)Nc2ccc(OC(F)(F)F)cc2)C2CCC(C3CC3)CC2)cc1 (centres unmarked) [Example 604, 4-[1-(4-Cyclopropylcyclohexyl)-3-(4-trifluoromethoxyphenyl)ureidomethyl]-N-(2H-tetrazol-5-yl)benzamide] — within 1.5-fold, 222 nM
- CCCC1(CCC)CCC(N(Cc2ccc(C(=O)NCCC(=O)O)cc2)C(=O)Nc2ccc(OC(F)(F)F)cc2)CC1 [Example 88, 3-{4-[1-(4,4-Dipropylcyclohexyl)-3-(4-trifluoromethoxyphenyl)ureidomethyl]benzoylamino}propionic acid] — within 1.5-fold, 137 nM
- O=C(Nc1nn[nH]n1)c1ccc(CN(C(=O)NCCc2ccccc2)c2ccc(C3CCCCC3)cc2)cc1 [Example 323, 4-[1-(4-Cyclohexylphenyl)-3-phenethylureidomethyl]-N-(2H-tetrazol-5-yl)benzamide] — within 1.5-fold, 102 nM
- O=C(Nc1nn[nH]n1)c1ccc(CN(C(=O)Nc2cc(Cl)cc(Cl)c2)c2ccc(C3CCCCC3)cc2)cc1 [Example 304, 4-[1-(4-Cyclohexylphenyl)-3-(3,5-dichlorophenyl)ureidomethyl]-N-(2H-tetrazol-5-yl)benzamide] — 3.3-fold lower, 45 nM
- CS(=O)(=O)c1ccc2nc(NC(=O)N(Cc3ccc(C(=O)Nc4nn[nH]n4)cc3)c3ccc(C4CCCCC4)cc3)sc2c1 [Example 616, 4-[1-(4-Cyclohexylphenyl)-3-(6-methylsulfonylbenzothiazol-2-yl)ureidomethyl]-N-(2H-tetrazol-5-yl)benzamide] — 5-fold higher, 745 nM
- CCCCOC(=O)c1ccc(NC(=O)N(Cc2ccc(C(=O)NCCC(=O)O)cc2)C2CCC(C(C)(C)C)CC2)cc1 (centres unmarked) [Example 61, 4-{3-(4-tert-Butylcyclohexyl)-3-[4-(2-carboxyethylcarbamoyl)benzyl]ureido}benzoic acid butyl ester] — 3.1-fold lower, 48 nM
- CC(=O)c1ccc(NC(=O)N(Cc2ccc(C(=O)Nc3nn[nH]n3)cc2)c2ccc(C3CCCCC3)cc2)cc1 [Example 272, 4-[3-(4-Acetylphenyl)-1-(4-cyclohexylphenyl)ureidomethyl]-N-(2H-tetrazol-5-yl)benzamide] — within 1.5-fold, 192 nM
- CS(=O)(=O)c1cccc(NC(=O)N(Cc2ccc(C(=O)Nc3nn[nH]n3)cc2)c2ccc(OC(F)(F)F)cc2)c1 [Example 450, 4-[3-(3-Methylsulfonylphenyl)-1-(4-trifluoromethoxyphenyl)ureidomethyl]-N-(2H-tetrazol-5-yl)benzamide] — 12-fold higher, 1790 nM
- O=C(O)CCNC(=O)c1ccc(CN(C(=O)Oc2ccc([N+](=O)[O-])cc2)c2ccc(C3CCCCC3)cc2)cc1 [Example 413, 3-(4-{[(4-Cyclohexylphenyl)-(4-nitrophenoxycarbonyl)amino]methyl}benzoylamino)propionic acid] — 8-fold higher, 1200 nM

same assay, conditions: Glu Bd Assay (III) IC50 (nM), BHK cell membranes, WGA SPA beads, 125I-glucagon

`CC(C)(C)[C@H]1CC[C@H](N(Cc2ccc(C(=O)NCCC(=O)O)cc2)C(=O)Nc2cc(Cl)cc(Cl)c2)CC1` [Example 255, 3-{4-[1-(trans-4-tert-Butylcyclohexyl)-3-(3,5-dichlorophenyl)ureidomethyl]benzoylamino}propionic acid] showed an IC50 of 80 nM.
